According to patent US6531456B1, “Gene therapy for the treatment of solid tumors using recombinant adeno-associated virus vectors” (Avigen, Inc., priority 1996, dated 2003):

How the values were obtained:
[1] = system: human U-251SP glioma cells; test: In vitro sensitivity of rAAVtk-IRES-hIL2-transduced cells to ganciclovir; type: cell-based
Protocol: More particularly, transduced cells were exposed to varying amounts of GCV to assess their sensitivity to the pro-drug. In the study 1×10^4 human U-251SP glioma cells were incubated for 12 hours with rAAVtk-IRES-hIL2 at MOIs of 0, 3×10^2, 3×10^3, 3×10^4, 3×10^5, and 3×10^6. The transduced cells were then incubated for an additional 72 hours in fresh medium containing serial dilutions of GCV at a final concentration of from 0.1-100 μg/mL.
In order to determine if cells transduced with the HSV-tk gene had enhanced susceptibility to the cytocidal effects of GCV, the following study was carried out. Recombinant AAV virion-transduced cells were exposed to varying amounts of GCV to assess their sensitivity to the drug. Particularly, 1×10^4 human U-251SP glioma cells/well (cultured in 200 μL of complete medium) were incubated with various concentrations of rAAVtk-IRES-hIL2 (at MOIs of 0, 3×10^2, 3×10^3, 3×10^4, 3×10^5, and 3×10^6) for 12 hours. The transduced cells were then incubated for an additional 72 hours in fresh medium containing serial dilutions of GCV at a final concentration of from 0.1-100 μg/mL. The numbers of living cells were then determined using the trypan blue dye exclusion method, and compared with those of nontransduced cells cultured without GCV treatment.

[2] = system: U-251SP cells; test: In vitro bystander tumoricidal effect, coculture of transduced and non-transduced cells; type: cell-based, human; conditions: 4.5 μg/mL ganciclovir, 3 days
Protocol: FIG. 3 depicts the in vitro cytocidal bystander effect observed in non-transduced cells that were cultured with HSV-tk transduced cells as described in Example 3. Cell co-cultures containing a total of 1×10^4 cells were formed by combining cells that were transduced with rAAVtk-IRES-hIL2 virions at the following ratios: 1:0, 1:1, 1:10, 1:100 and 0:1 (transduced:nontransduced cells). After a 24 hour incubation, the co-cultures were exposed to 4.5 μg/mL of ganciclovir and allowed to incubate for an additional 3 days. Numbers of living cells were counted using the trypan blue dye exclusion method. The Figure indicates % cell survival compared to the cultures containing only non-transduced cells (0:1). The data is presented a mean +/− a standard error deviation based on duplicate experiments.
In order to assess the in vitro bystander tumoricidal effect of HSV-tk transduced cells on neighboring non-transduced cells, the following study was carried out. U-251SP cells were incubated for 12 hours in DMEM medium containing rAAVtk-IRES-hIL2 virions at a MOI of 1.9×10^6. Since this MOI was greater than the MOI determined necessary for 100% transduction by the rAAVlacZ virions (e.g., 3×10^5 as determined above in Example 1), the incubated cells were considered to be 100% transduced. The rAAVtk-IRES-hIL2 transduced cells were cocultured with non-transduced U-251SP cells at ratios of 1:0, 1:1, 1:10, 1:100 and 0:1 (transduced:nontransduced cells) to provide 1×10^4 total cells per well in a 24 well tissue culture plate. 24 hours after the coculture was initiated, 4.5 μg/mL of ganciclovir (DENOSINE® Roche, Basel, Switzerland) was added to each well in fresh media. After 3 days, the numbers of living cells were determined using the trypan blue dye exclusion method.

[3] = 3 patients; cited from earlier work

Compound: Nc1nc(O)c2ncn(COC(CO)CO)c2n1 [GCV, ganciclovir]
- inhibition ([1]; 4.5 μg/mL of GCV, rAAVtk-IRES-hIL2 at a MOI of 3×10^3): more than 80%
- IC50 ([1]; Homo sapiens, Glioma cell, GCV 72 hours, cells exposed to rAAVtk-IRES-hIL2 at a MOI of 3×10^3 or greater, read-out: TCID50): < 0.28 µg/mL
- effect on cell growth ([1]; high doses of GCV, non-transduced cells): mild inhibitory effect
- tumoricidal effect compared with only non-transduced cells (0:1) ([2]; 1% rAAVtk-IRES-hIL2-transduced cells (1:100)): 15.1%
- tumoricidal effect compared with only non-transduced cells (0:1) ([2]; 10% rAAVtk-IRES-hIL2-transduced cells (1:10)): 58.1%
- sensitivity to GCV killing ([2]; 50% rAAVtk-IRES-hIL2-transduced cells (1:1)): as sensitive to GCV killing as were cultures containing 100% transduced cells
- concentration in the CSF [3]: 310 to 680 ng/mL
- concentration in the plasma [3]: 440 to 2200 ng/mL
